Assay results from patent publication US10501511B2, “Low molecular polypeptide for preventing and treating inflammation and use thereof” (SHANGHAI FIRST PEOPLE'S HOSPITAL, priority 2013, dated 2019).
Where a SMILES comes first, the peptide text is derived from it.

Experiments:
[1] = tested on: IL-6 in LPS-induced RAW264.7 cells; assay: IL-6 concentration (ELISA) in supernatant of LPS-induced RAW264.7 cells; type: cell-based, murine; settings: for concentration of IL-6 in cell supernatant: LPS group 2650.00±106.07, control 213.00±15.56; for IL-6: Samples 10 μM, Control (LPS) 2713.95
Procedure: (§1) 1.1 Experimental cell strain and Materials: murine peritoneal macrophage cell strain RAW264.7 were purchased from the Cell Bank of Shanghai Institutes for Biological Sciences, CAS; DMEM high glucose medium was purchased from GIBCO; mouse tumor necrosis factor-α (TNF-α) and interleukin-6 (IL-6) enzyme-linked immunosorbent assay (ELISA) kits were purchased from R & D company, US.
(§2) 1.2 Model establishment and Intervention test: RAW264.7 cells were cultured in high glucose DMEM medium containing 10% fetal bovine serum (FBS), and 100 U/ml double antibiotics of penicillin and streptomycin, and placed in 37° C., 5% CO2 incubator for amplification. Cells at Logarithmic growth phase were seeded in 24-well plates at 2.5×10^5/ml. When adhered cells grew well and were cultured to 80-90% of confluence, the medium was replaced by a DMEM medium without 10% FBS for serum-starved culture for 24 hours. RAW264.7 cells were randomly divided into control group, LPS group, LPS+H-RN group with sextuplicate wells for each group. LPS group and LPS+H-RN group were added with 500 μl of different concentrations of H-RN (1, 10, 100 μM) and LPS (100 ng/ml) and the control group was added with an equal volume of DMEM medium, each group was placed in 37° C., 5% CO2 incubator and routinely cultured. Cell supernatants were collected after 24 hours.
(§3) The experiment data was shown as x±s. SPSS 11.0 statistical package was used for statistic analysis and one-way ANOVA was used to compare TNF-α and IL-6 level in supernatant between the groups, and P<0.05 represents statistical significance.

[2] = tested on: Rat Endotoxin-induced Uveitis (EIU) model; assay: Clinical manifestation score in rat endotoxin-induced uveitis (EIU) model; type: in vivo, Wistar rats; settings: 10 μl into vitreous chamber, 24 hours, score 0-4
Procedure: (§4) 1.1 Experiment animals and materials: healthy male Wistar rats, 140-180 g, 8-10 weeks old, were purchased from Animal Center of Chinese Academy of Medical Sciences; Lipopolysaccharides (LPS), derived from Escherichia coli, was purchased from SIGMA-Aldrich Corporation (U.S.A).
(§5) 1.2 Model establishment and Intervention test: Wistar rats were randomly divided into six groups (9-15 rats for each group) which were LPS group, LPS+1 μg/μl H-RN intervention group, LPS+5 μg/μl H-RN group, LPS+10 μg/μl H-RN group, LPS+10 μg/μl DXM and normal control group (PBS) respectively. 200 μg LPS (2 mg/ml, 100 μl, dissolved in sterile saline) was subcutaneously injected into right foot pad of rats, thereby establishing EIU model. The normal control group was subcutaneously injected with 100 μl sterile saline into the right foot pad of rats. In LPS group, LPS+H-RN (1, 5, 10 μg/μl) intervention group and LPS+10 μg/μl DXM group, each rat was subcutaneously injected with 200 μg LPS into the right foot pad, meanwhile, PBS 10 μl, H-RN PBS solution (1, 5 and 10 μg/μl) 10 μl and DXM PBS solution (10 μg/μl) 10 μl were injected into vitreous chamber respectively.
1.3 Qualitative observation for Clinical manifestations of EIU rats: 24 hours after drug and LPS intervention, rats were observed by biological microscope. The clinical manifestations of rats were evaluated and scored by an independent observer according to the method of Behar-Cohen et al. The severity of EIU was represented by 0-4 scores: 0: no inflammation; 1: mild dilation in conjunctiva and iris vessel; 2: moderate dilation in conjunctiva and iris vessel with anterior chamber flare; 3: severe iris hyperemia with severe anterior chamber flare; 4: anterior chamber cellulose-like exudation, posterior synechia, miosis and hypopyon in addition to 3 points.
(§6) The experiment data was shown as x±s. A one-way ANOVA was used to compare the change of inflammatory cell infiltration of rats in each group. P<0.05 represents statistical significance.

[3] = tested on: Rat Endotoxin-induced Uveitis (EIU) model; assay: Count of inflammatory cell infiltration in aqueous humor of EIU rats; type: in vivo, Wistar rats; settings: 24 hours, LPS group 164.20±142.7
Procedure: as §4, §5
1.4 Quantitative count for inflammatory cell infiltration in rat aqueous humor: 24 hours after LPS and drug intervention, rats were sacrificed in excess of anesthesia. Under an operating microscope, aqueous humor (30-40 μl/binoculus) was collected by anterior chamber paracentesis with a 30-gauge microsyringe at 1 mm from rat corneal limbus. Aqueous humor samples were diluted with an equal amount of trypan blue dye liquid. Cells in aqueous humor were counted using a hemocytometer under light microscopy by two independent technicians for each region (equivalent with 0.1 μl). The average of the four regions was the number of cells contained in 1 μl aqueous humor.
as §6

[4] = tested on: TNF-α in LPS-induced RAW264.7 cells; assay: TNF-α concentration (ELISA) in supernatant of LPS-induced RAW264.7 cells; type: cell-based, murine; settings: for concentration of TNF-α in cell supernatant: LPS group 1333.00±476.59, control 561.00±25.65; for TNF-α: Samples 10 μM, Control (LPS) 1425.60
Procedure: as §1, §2, §3

[5] = Cytotoxicity assay (MTS colorimetric method), relative growth rate; type: cell-based, murine; settings: mouse, RAW264.7 macrophage cells, 24 hours, MTS, blank 100.05±3.95%, read-out: relative growth rate (RGR) of cells
Procedure: (§7) 1.1 Experimental cell strain and Materials: murine peritoneal macrophage cell line RAW264.7 were purchased from the Cell Bank of Shanghai Institutes for Biological Sciences, CAS; DMEM high glucose medium were purchased from GIBCO; MTS were purchased from Promega, prepared into 300 mmol/L in PBS (pH 6.0) and stored at −20° C. in darkness.
(§8) 1.2 Model establishment and Intervention test: RAW264.7 cells were cultured in high glucose DMEM medium containing 10% fetal bovine serum (FBS), and 100 U/ml double antibiotics of penicillin and streptomycin, and placed in 37° C., 5% CO2 incubator for amplification. Cells at logarithmic growth phase were seeded in 96-well plates at 1×10^5/ml. When adhered cells grew well and were cultured to 80-90% of confluence, the medium was replaced by a DMEM medium without 10% FBS for serum-starved culture for 24 hours.
(§9) 1.3 Cytotoxicity assay (MTS colorimetric method): After the cells were cultured for 24 hours in serum starvation, different concentrations of H-RN (0.1, 1, 10 μM, 100 μM, 1 mM, 100 μl) were added into each well with sextuplicate wells for each concentration. The blank control group was added with an equal volume of DMEM medium. The plates were placed in 37° C., 5% CO2 incubator and cultured for 24 hours, added with 20 μl of MTS solution to each well and cultured for another 4 hours. The absorbance of each well was measured by an enzyme-linked immunosorbent detector in 490 nm, and the relative growth rate (RGR) of cells was calculated. Formula: RGR=A value of experimental group/A value of control group×100%.
(§10) 1.5. Statistic analysis: The experiment data was shown as x±s. SPSS 11.0 statistical package was used for statistic analysis and one-way ANOVA was used to compare RGR of cells between the groups, and P<0.05 represents statistical significance.

RAW264.7 cells = assay: as above; type: cell-based, murine; settings: concentration range of 0.1 μm-1 mM
Procedure: as §7, §8, §9, §10

[6] = Water solubility of synthesized polypeptide powder; type: physicochemical; settings: white powder
[7] = 1 μM peptide + LPS 100 ng/ml, 24 hours, P>0.05
[8] = 10 μM peptide + LPS 100 ng/ml, 24 hours
[9] = 100 μM peptide + LPS 100 ng/ml, 24 hours
[10] = LPS + 10 μg/μl peptide, LPS group 3.56±0.51
[11] = LPS + 10 μg/μl peptide intravitreal

N=C(N)NCCC[C@H](NC(=O)[C@@H]1CCCN1C(=O)[C@H](CC(N)=O)NC(=O)[C@@H](N)CCCNC(=N)N)C(=O)NCC(=O)N[C@@H](CCC(=O)O)C(=O)N[C@@H](CCC(=O)O)C(=O)NCC(=O)NCC(=O)N1CCC[C@H]1C(=O)N[C@@H](Cc1c[nH]c2ccccc12)C(=O)O [H-RN, RNPRGEEGGPW] (H-RNPRGEEGGPW-OH; N-terminus assumed)
IL-6 in cell supernatant compared with LPS group [1, 7]: no significant difference | concentration of IL-6 in cell supernatant [1, 8]: 1385.00 ± 101.54 pg/mL | concentration of IL-6 in cell supernatant [1, 9]: 1355.00 ± 134.35 pg/mL | EIU clinical score ([2]; LPS + 1 μg/μl H-RN, LPS group 3.56±0.51, normal control 0.50±0.54): 2.42±0.53 | EIU clinical score ([2]; LPS + 5 μg/μl peptide, LPS group 3.56±0.51): 2.12±0.64 | EIU clinical score [2, 10]: 1.92±0.27 | count of inflammatory cells in aqueous humor ([3]; LPS + 1 μg/μl peptide intravitreal): 49.14±40.84 ×10^5 cells/ml | count of inflammatory cells in aqueous humor ([3]; LPS + 5 μg/μl peptide intravitreal): 40.40±31.34 ×10^5 cells/ml | count of inflammatory cells in aqueous humor [3, 11]: 37.35±21.44 ×10^5 cells/ml | TNF-α in cell supernatant compared with LPS group [4, 7]: no significant difference | concentration of TNF-α in cell supernatant [4, 8]: 737.00 ± 155.56 pg/mL | concentration of TNF-α in cell supernatant [4, 9]: 718.00 ± 79.19 pg/mL | viability at 24 h, 0.1 µM ([5]; 0.1 μM): 96.9 ± 3.64% | viability at 24 h, 1 µM ([5]; 1 μM): 100 ± 2.67% | viability at 24 h, 10 µM ([5]; 10 μM): 98.3 ± 3.91% | viability at 24 h, 100 µM ([5]; 100 μM): 101 ± 4% | viability at 24 h, 1000 µM ([5]; 1 mM): 95.8 ± 4.92% | toxic effects on cells (RAW264.7 cells): no significant toxic effects | water solubility [6]: good water solubility

GPERWRGPNGE [H-GP, reference compound]
IL-6 in cell supernatant compared with LPS group ([1]; 100 μM peptide, p>0.05): no significant difference | EIU clinical score [2, 10]: 3.32±0.61 | count of inflammatory cells in aqueous humor [3, 11]: 134.66±98.23 ×10^5 cells/ml | TNF-α in cell supernatant compared with LPS group ([4]; 100 μM peptide, p>0.05): no significant difference

KQPRGEEGGPW [Derived polypeptide 2, polypeptide derived from H-RN]
IL-6 [1]: 1356.46 pg/mL | TNF-α [4]: 701.63 pg/mL

NPRGEEGGP [Derived polypeptide 5, polypeptide derived from H-RN]
IL-6 [1]: 1395.34 pg/mL | TNF-α [4]: 745.70 pg/mL

QNPRGDEPGPW [Derived polypeptide 4, polypeptide derived from H-RN]
IL-6 [1]: 1411.87 pg/mL | TNF-α [4]: 765.92 pg/mL

RNPKGEEGGPW [Derived polypeptide 1, polypeptide derived from H-RN]
IL-6 [1]: 1365.29 pg/mL | TNF-α [4]: 724.98 pg/mL

RNPRGEEGGPWCF [Derived polypeptide 6, polypeptide derived from H-RN]
IL-6 [1]: 1369.41 pg/mL | TNF-α [4]: 696.77 pg/mL

RNPRPEEGGAY [Derived polypeptide 3, polypeptide derived from H-RN]
IL-6 [1]: 1402.54 pg/mL | TNF-α [4]: 792.31 pg/mL
